Test results reported in patent publication US20240131029A1, “SELECTIVE ROCK2 INHIBITION FOR TREATMENT OF EDEMA AND ASSOCIATED CONDITIONS” (President and Fellows of Harvard College, priority 2021, published 2024).
“Also recorded” adds a separate entry of the source.

Legend:
[1] = tested on: human dermal lymphatic endothelial cells (LECs), engineered lymphatic vessel; experiment: lymphatics-on-chip lymphatic drainage under cytokine challenge; assay type: cell-based
Description: (§1) To overcome the issues outlined above, a microfluidic 3D culture model featuring an engineered lymphatic vessel that can drain interstitial fluid was developed. The device includes a polydimethylsiloxane (PDMS) housing and two parallel cylindrical channels within a 3D collagen hydrogel (FIG. 1A). Human dermal lymphatic endothelial cells (LECs) seeded in one channel generated an engineered lymphatic vessel (FIG. 1A) that expressed lymphatic endothelial markers with appropriate apical-basal orientation (FIG. 1A and FIG. 1B). Furthermore, stimulation with the lymphangiogenic vascular endothelial growth factor C (VEGFC) triggered lymphatic sprouting (FIG. 1C). To characterize the integrity of the lymphatic endothelium within the device, their junctional organization was examined by immunofluorescence.
To functionally assess this rudimentary lymphatic vessel required a measure of lymphatic drainage. To accomplish this, the second, cell-free channel was pressurized with a surrogate lymph fluid composed of fluorescently labeled lymph molecules, including fatty acids, phospholipids, albumin, and insoluble particles (data not shown). The interstitial fluid pressure triggered convective fluid transport into the engineered lymphatic vessel. Lymph fluid drained by the lymphatic vessel accumulated in the connected reservoirs and was collected for analysis. Human dermal blood microvascular endothelial cells-generated blood vessels or cell-free channels were used as controls. […] Time-lapse microscopy of drainage further confirmed that fluid entered the luminal space of lymphatic vessels faster than that of blood vessels (FIG. 1H and data not shown).
Inflammation is a primary driver of lymphedema (2, 9, 10), so the next set of experiments tested whether inflammatory cytokines could impair drainage in this system. […] To begin to characterize what signaling pathways might be involved in tightening the lymphatic junctions, inhibitors that might impact IL-2-induced junction assembly were identified (data not shown): PP2, a Src-family of protein tyrosine kinase inhibitor; Wortmannin, a PI3K inhibitor; Y27632, a ROCK inhibitor; GGTI298, a Rap1 inhibitor; NSC23766, a Rac1 inhibitor; Blebbistatin, a Myosin II inhibitor; and Cpd22, an integrin-linked kinase inhibitor.

[2] = tested on: LEC junctions; experiment: junction staining of engineered lymphatic vessels (immunofluorescence); assay type: cell-based, human; conditions: 20 μM, IL-2 challenge
Description: as §1
Inflammation is a primary driver of lymphedema (2, 9, 10), so the next set of experiments tested whether inflammatory cytokines could impair drainage in this system. […]

[3] = tested on: tail vein edema; experiment: mouse tail edema following cautery injury; assay type: in vivo, mice; conditions: following cautery injury (FIG. 4A)
Description: Tail volume changes were quantified (FIG. 4B), and drainage to the iliac lymph nodes was assesses 1 hour after intradermal injection of Alexa647-conjugated albumin into tails of mice treated with KD025 or vehicle (FIG. 4C).

[4] = tested on: lymphedema in mouse tails; experiment: mouse tail lymphedema model (surgical ligation of peripheral lymphatics); assay type: in vivo
Description: To investigate the potential efficacy of ROCK inhibition in lymphedema, Y27632 was tested in an established mouse model of lymphedema (13, 14). Lymphedema was induced by surgical ligation of peripheral lymphatics in mouse tails (FIG. 2G). […] Tail-injured mice were left without any treatment for one month.

[5] = clinically used ROCK inhibitors, FIG. 2C

In the case of `C[C@H]1CNCCCN1S(=O)(=O)c1cccc2cncc(F)c12` [Ripasudil], the lymphatic drainage [1, 5] was “similarly improved lymphatic drainage”.
With `CC(C)NC(=O)COc1cccc(-c2nc(Nc3ccc4[nH]ncc4c3)c3ccccc3n2)c1` [KD025, 2-[3-[4-(1H-indazol-5-ylamino)-2-quinazolinyl]phenoxy]-N-(1-methylethyl)-acetamide] the lymphatic drainage ([1]; 20 μM, IL-2 challenge (FIG. 3L)) was “reversed; also recorded: sufficient to reduce lymphatic drainage”, the “tightening of the LEC junctions” value [2] was “reversed tightening of the LEC junctions” and the “visible tail vein edema swelling” value [3] was “reduced visible tail vein edema swelling”.
In the case of `C[C@@H](N)[C@H]1CC[C@H](C(=O)Nc2ccncc2)CC1` [Compound Y27632], the lymphatic drainage ([1]; GM-CSF and G-CSF treated conditions (FIG. 2A, 2B)) was “normalized”, the lymphatic drainage ([1]; IL-2 treated lymphatic vessels) was “completely normalized the impaired drainage” and the “drainage to proximal lymph nodes compared to untreated control mice” value ([4]; 1 h after intradermal Alexa647-conjugated albumin (FIG. 2H)) was “tenfold higher drainage”. For the same molecule, the “time to complete resolution of lymphedema following treatment” value ([4]; delayed treatment, one month after tail injury) was at most 2 weeks, the “reversal of existing chronic lymphedema” value ([4]; delayed treatment, one month after tail injury (FIG. 2I, 2J)) was “completely resolved the lymphedema” and the “lymphedema (tail volume change), prevention” value ([4]; treatment after surgical ligation (FIG. 2G)) was “completely prevented lymphedema”.
In the case of `O=S(=O)(c1cccc2cnccc12)N1CCCNCC1` [Fasudil], the lymphatic drainage [1, 5] was “similarly improved lymphatic drainage”.
